The numbers were not newly measured in article PMC5014530 (Molecular Therapy. Nucleic Acids, 2016), which cites them from elsewhere.

This series deals with mitochondrial membranes.

Consider (KLAKLA)2, for which the “Mechanism of apoptosis induction” value is “disrupts mitochondrial membranes to cause apoptosis”.
